One may read the Tmax as the time from dosing to the highest level. For orientation: Cmax means the maximum level reached in the sampled fluid or tissue.

Like-named read-outs stand apart in the source and are kept apart here.

The nature of data set [1]: Urinary excretion of flavanone-derived metabolites after single intake of lemon or orange extract (UPLC-ESI-QTOF-MS). Format: in vivo, human. To be noted: for Urinary excretion F1: urine fraction 0-4 h; for Urinary excretion F1 / Urinary excretion F2 / Urinary excretion F3 / Urinary excretion F4 / Urinary excretion Total F: mean ± SD; for Urinary excretion F2: urine fraction 4-8 h; for Urinary excretion F3: urine fraction 8-10 h; for Urinary excretion F4: urine fraction 10-24 h; for Urinary excretion Total F: sum of fractions F1-F4 (24 h); for Occurrence Urine LE (number of volunteers in whom the metabolite was detected): after consuming lemon extract; for Occurrence Urine LE (number of volunteers in whom the metabolite was detected) / Occurrence Urine OE (number of volunteers in whom the metabolite was detected): n = 16 volunteers; for Occurrence Urine OE (number of volunteers in whom the metabolite was detected): after consuming orange extract. The source says:
Secondary endpoints involved the evaluation of post-prandial changes in several biomarkers dealing with metabolism, inflammation, and oxidative stress after a high-fat-high-sugars meal. The design was a randomized pharmacokinetic, double-blind, crossover, single-dose trial consisted of 2 test-phases. The volunteers were randomly allocated into two groups using a computerized random number list. Each group consumed one of the citrus extracts by following a test-phase that lasted for 1 day for blood sampling and urine collection, a 2-week washout period between each test phase, and crossover before consuming the other extract. The volunteers were instructed to avoid the consumption of flavanone-containing products, from a list provided by the researchers, for 1 week before the study and during the wash-out phase (citrus fruit juices, tomatoes, tomato-based sauces (like ‘ketchup’), peppers, almonds, etc.). […] The 3 capsules provided a total of 1.95 g orange extract, containing 260 mg hesperidin, and 3.1 g lemon extract, containing 260 mg eriocitrin. […] Untreated urine samples were aliquoted and frozen at −80 °C for up to 4 weeks until analyses, avoiding freeze-thaw cycles to avoid metabolites’ deconjugation. Moreover, three measurements of blood pressure and heart rate were taken before each time-point of blood withdrawal. […] A previously validated method for analyzing phenolic metabolites in biological samples, including flavanone-derived metabolites, was used. […] After centrifugation at 14,000× g for 10 min at 4 °C, the supernatant was evaporated in a speed vacuum concentrator. Finally, samples were re-suspended in 100 µL of methanol, filtered through a 0.22 µm cellulose filters before analysis by UPLC- ESI-QTOF-MS. […] A targeted screening strategy was applied to identify metabolites that could be present after consuming the citrus extracts. Twenty-eight possible compounds were browsed in all the samples. The list of compounds included the polyphenols present in the extracts, with particular focus on the flavanone rutinosides hesperidin and eriocitrin, their respective aglycones hesperetin, and eriodictyol, as well as their derived phase-II conjugates (glucuronides, sulfates, sulfoglucuronides, etc.). The exact mass of each proposed compound was extracted using an extraction window of 0.01 m/z. The metabolites hesperetin 7-O-glucuronide, hesperetin 3′-O-glucuronide, hesperetin 3-O-sulfate, naringenin 4′-O-glucuronide, and naringenin 7′-O-glucuronide were quantified with their corresponding standards. […] The parent phenolic compounds were quantified with their corresponding standards. In the case of some relevant conjugated metabolites, which standards were not available (eriodictyol and homoeriodictyol conjugates), their quantification was achieved by using relative response factors (RRFs) as previously described. Briefly, RRFs are useful to check the different responses of metabolites in the mass spectrometer vs. their UV signal. While the ionization response of free vs. conjugated forms is usually very different, their UV signal response is quite similar. To this purpose, we injected in a HPLC-DAD-ESI-Q (MS) the plasma samples (n = 5) with the highest concentrations of those conjugated metabolites. Concentrations were calculated by integrating the area from their corresponding UV peaks and compared with the UV peak area of a known concentration of their corresponding available parent compounds (eriodictyol and homoeriodictyol). The concentrations calculated were used to compare the MS response for each conjugated-aglycone pair.

Data set [2] in a line: Plasma metabolites and pharmacokinetics after single intake of lemon or orange extract (UPLC-ESI-QTOF-MS, non-compartmental analysis). The note with it: for Occurrence Plasma LE (number of volunteers in whom the metabolite was detected): after consuming lemon extract; for Occurrence Plasma LE (number of volunteers in whom the metabolite was detected) / Occurrence Plasma OE (number of volunteers in whom the metabolite was detected): n = 16 volunteers; for Occurrence Plasma OE (number of volunteers in whom the metabolite was detected): after consuming orange extract; for Tmax / Cmax / AUC(0-t): mean ± SD. In kind it is in vivo, human. An excerpt: Secondary endpoints involved the evaluation of post-prandial changes in several biomarkers dealing with metabolism, inflammation, and oxidative stress after a high-fat-high-sugars meal. The design was a randomized pharmacokinetic, double-blind, crossover, single-dose trial consisted of 2 test-phases. The volunteers were randomly allocated into two groups using a computerized random number list. Each group consumed one of the citrus extracts by following a test-phase that lasted for 1 day for blood sampling and urine collection, a 2-week washout period between each test phase, and crossover before consuming the other extract. The volunteers were instructed to avoid the consumption of flavanone-containing products, from a list provided by the researchers, for 1 week before the study and during the wash-out phase (citrus fruit juices, tomatoes, tomato-based sauces (like ‘ketchup’), peppers, almonds, etc.). […] The 3 capsules provided a total of 1.95 g orange extract, containing 260 mg hesperidin, and 3.1 g lemon extract, containing 260 mg eriocitrin. […] Plasma samples were obtained by centrifugation of peripheral venous blood at 14,000× g for 15 min at 4 °C and immediately frozen at −80 °C. Glucose, total cholesterol, HDL-cholesterol, LDL-cholesterol, triglycerides, insulin, homeostatic model assessment insulin resistance (HOMA-IR), gamma-glutamyl transferase (GGT), and alanine aminotransferase (ALT) were determined as previously reported. […] A previously validated method for analyzing phenolic metabolites in biological samples, including flavanone-derived metabolites, was used. […] After centrifugation at 14,000× g for 10 min at 4 °C, the supernatant was evaporated in a speed vacuum concentrator. Finally, samples were re-suspended in 100 µL of methanol, filtered through a 0.22 µm cellulose filters before analysis by UPLC- ESI-QTOF-MS. A targeted screening strategy was applied to identify metabolites that could be present after consuming the citrus extracts. Twenty-eight possible compounds were browsed in all the samples. The list of compounds included the polyphenols present in the extracts, with particular focus on the flavanone rutinosides hesperidin and eriocitrin, their respective aglycones hesperetin, and eriodictyol, as well as their derived phase-II conjugates (glucuronides, sulfates, sulfoglucuronides, etc.). The exact mass of each proposed compound was extracted using an extraction window of 0.01 m/z. The metabolites hesperetin 7-O-glucuronide, hesperetin 3′-O-glucuronide, hesperetin 3-O-sulfate, naringenin 4′-O-glucuronide, and naringenin 7′-O-glucuronide were quantified with their corresponding standards. […] The parent phenolic compounds were quantified with their corresponding standards. In the case of some relevant conjugated metabolites, which standards were not available (eriodictyol and homoeriodictyol conjugates), their quantification was achieved by using relative response factors (RRFs) as previously described. Briefly, RRFs are useful to check the different responses of metabolites in the mass spectrometer vs. their UV signal. While the ionization response of free vs. conjugated forms is usually very different, their UV signal response is quite similar. To this purpose, we injected in a HPLC-DAD-ESI-Q (MS) the plasma samples (n = 5) with the highest concentrations of those conjugated metabolites. Concentrations were calculated by integrating the area from their corresponding UV peaks and compared with the UV peak area of a known concentration of their corresponding available parent compounds (eriodictyol and homoeriodictyol). The concentrations calculated were used to compare the MS response for each conjugated-aglycone pair. Statistical analyses were carried out using the SPSS Software, version 23.0 (SPSS Inc., Chicago, IL, USA). Data are expressed as mean ± SD. The empirical distribution of data with the normality assumption was tested with the Shapiro-Wilk test. […]

Where [3] appears, read: lemon extract (3.1 g, 260 mg eriocitrin).
The mark [4] stands for this setting: orange extract (1.95 g, 260 mg hesperidin).

Consider `COc1ccc(C2CC(=O)c3c(O)cc(O)cc3O2)cc1OS(=O)(=O)O` (stereo not shown) [M14, Hesperetin 3′-O-sulfate], for which the “Urinary excretion F1” value in data set [1] (setting [3]) is recorded as 1.9 ± 2.6 µg/mg creatinine; in data set [1] (setting [4]), 0.1 ± 0.3 µg/mg creatinine. Moreover, the “Urinary excretion F2” value in data set [1] (lemon extract) turned out to be 4.3 ± 4.5 µg/mg creatinine; in data set [1] (orange extract), 1.2 ± 3.3 µg/mg creatinine. The “Urinary excretion F3” value in data set [1] (lemon extract) worked out at 3.3 ± 3.1 µg/mg creatinine; in data set [1] (orange extract), 1.9 ± 3.1 µg/mg creatinine. For the same molecule, the “Urinary excretion F4” value in data set [1] (lemon extract) is listed as 0.7 ± 0.6 µg/mg creatinine; in data set [1] (orange extract), 0.6 ± 0.6 µg/mg creatinine. Besides, the “Urinary excretion Total F” value in data set [1] (orange extract) turned out to be 3.8 ± 7.3 µg/mg creatinine. The “Urinary excretion after lemon extract vs. orange extract” value in data set [1] (ratio lemon / orange extract intake) is recorded as “around 2 fold”. Further, in data set [1], the “Occurrence Urine LE (number of volunteers in whom the metabolite was detected)” value (“Occurrence Urine LE” for short) was determined as 16. Also, the “Occurrence Urine OE (number of volunteers in whom the metabolite was detected)” value (from here on “Occurrence Urine OE”) in data set [1] turned out to be 16. Moreover, in data set [2], the “Occurrence Plasma LE (number of volunteers in whom the metabolite was detected)” value (from here on “Occurrence Plasma LE”) amounted to 16. In addition, in data set [2], the “Occurrence Plasma OE (number of volunteers in whom the metabolite was detected)” value (shortened to “Occurrence Plasma OE”) was 16. Besides, the Tmax in data set [2] (after orange (hesperidin) extract) came out at 8.4 ± 1.5 h; in data set [2] (human, oral, 1.95 g, after orange (hesperidin) extract, read-out: Tmax) it was 8.5 h; in data set [2] (human, oral, 3.1 g, after lemon extract, read-out: Tmax), 6.5 ± 1.9 h. For the same molecule, the Cmax worked out at 178 ± 286 nM in data set [2] (human, oral, 1.95 g, after orange (hesperidin) extract) and 527 ± 358 nM in data set [2] (human, oral, 3.1 g, after lemon extract). In addition, the AUC(0-t) in data set [2] (human, oral, 1.95 g, after orange (hesperidin) extract, read-out: AUC0-t) stood at 0.635 ± 1.17 µM·h; in data set [2] (human, oral, 3.1 g, after lemon extract, read-out: AUC0-t), 2.04 ± 1.81 µM·h.

In the case of `O=C1C[C@@H](c2ccc(O)cc2)Oc2cc(O)cc(O)c21` [M15, Naringenin], in data set [1], the “Occurrence Urine LE” value stood at 9 and the “Occurrence Urine OE” value is reported as 5. Moreover, in data set [2], the “Occurrence Plasma LE” value is on record as 6 and the “Occurrence Plasma OE” value is reported as 2.

Turning to `COc1cc([C@@H]2CC(=O)c3c(O)cc(O)cc3O2)ccc1O` [M16, Homoeriodictyol], in data set [1], the “Occurrence Urine LE” value was 12 and the “Occurrence Urine OE” value is recorded as 1. Further, in data set [2], the “Occurrence Plasma LE” value was found to be 15 and the “Occurrence Plasma OE” value is on record as 1.

Consider `COc1ccc([C@@H]2CC(=O)c3c(O)cc(O)cc3O2)cc1O` [M17, Hesperetin], for which, in data set [1], the “Occurrence Urine LE” value is recorded as 5 and the “Occurrence Urine OE” value was determined as 8. For the same molecule, in data set [2], the “Occurrence Plasma LE” value is given as 8 and the “Occurrence Plasma OE” value is listed as 3.

With Eriodictyol sulfate [M13], in data set [1] (setting [3]), the “Urinary excretion F1” value is reported as 4.6 ± 5.0 µg/mg creatinine. Moreover, in data set [1] (lemon extract), the “Urinary excretion Total F” value turned out to be 32.6 ± 36.5 µg/mg creatinine, the “Urinary excretion F2” value is 14.6 ± 17.3 µg/mg creatinine, the “Urinary excretion F3” value came out at 11.9 ± 12.6 µg/mg creatinine and the “Urinary excretion F4” value was determined as 1.5 ± 1.5 µg/mg creatinine. For the same molecule, in data set [1] (setting [4]), the “Urinary excretion F1” value is 0.02 ± 0.01 µg/mg creatinine. In data set [1] (orange extract), the “Urinary excretion Total F” value worked out at 0.6 ± 0.9 µg/mg creatinine, the “Urinary excretion F2” value is given as 0.1 ± 0.1 µg/mg creatinine, the “Urinary excretion F3” value was determined as 0.2 ± 0.4 µg/mg creatinine and the “Urinary excretion F4” value was 0.3 ± 0.4 µg/mg creatinine. In data set [1], the “Occurrence Urine LE” value is recorded as 16 and the “Occurrence Urine OE” value was found to be 12. Also, in data set [2], the “Occurrence Plasma LE” value amounted to 16 and the “Occurrence Plasma OE” value is 10. In addition, in data set [2] (after lemon extract), the AUC(0-t) was found to be 6.12 ± 6.631 µM·h, the Cmax stood at 1710 ± 1510 nM and the Tmax is given as 5.7 ± 2.5 h.

Take Eriodictyol sulfoglucuronide [M9]: in data set [1], the “Occurrence Urine LE” value is on record as 5 and the “Occurrence Urine OE” value turned out to be 0. Also, in data set [2], the “Occurrence Plasma LE” value was found to be 15 and the “Occurrence Plasma OE” value is 0.

Hesperetin sulfoglucuronide [M11]: in data set [1], the “Occurrence Urine LE” value is 0 and the “Occurrence Urine OE” value was 7. In data set [2], the “Occurrence Plasma LE” value was 0 and the “Occurrence Plasma OE” value is 8.

As for Homoeriodictyol glucuronide [M6], the “Urinary excretion F1” value in data set [1] (setting [3]) was 13.9 ± 16.2 µg/mg creatinine. In data set [1] (lemon extract), the “Urinary excretion Total F” value is recorded as 106 ± 171 µg/mg creatinine, the “Urinary excretion F2” value stood at 48.1 ± 90.0 µg/mg creatinine, the “Urinary excretion F3” value is listed as 37.2 ± 56.9 µg/mg creatinine and the “Urinary excretion F4” value stood at 6.8 ± 8.0 µg/mg creatinine. Besides, in data set [1], the “Occurrence Urine LE” value worked out at 16 and the “Occurrence Urine OE” value is listed as 3. Moreover, in data set [2], the “Occurrence Plasma LE” value is given as 16 and the “Occurrence Plasma OE” value was found to be 3. In data set [2] (after lemon extract), the AUC(0-t) turned out to be 3.133 ± 4.17 µM·h, the Cmax is 780 ± 863 nM and the Tmax is 6.1 ± 2.4 h.
